{"source": "the supplement of paper PMC10307832", "assay_in_all_cases": "relative viability (nuclei count vs DMSO), 5 days (fraction); higher = more cells survive", "key": {"[1]": {"compound": "COc1cc2c(Oc3ccc4[nH]c(C)cc4c3F)ncnc2cc1OCCCN1CCCC1 [Cediranib] + C[C@@H](Oc1cc(-c2cnn(C3CCNCC3)c2)cnc1N)c1c(Cl)ccc(F)c1Cl [Crizotinib] (partner 1 µM)", "procedure,_shortened": "(§1)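 Medians of duplicate plates are given as relative viability. That measure is the nuclei count in treated wells divided by the count in vehicle wells. Counts were taken on 4× images of lung cancer cell lines in 1536-well plates, 5 days after pin-tool dosing the day after seeding with one drug alone or a fixed anchor-drug dose plus five library-drug doses (not always all listed) in √10 steps.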"}, "[2]": {"compound": "Nc1ncn([C@H]2C[C@H](O)[C@@H](CO)O2)c(=O)n1 [Decitabine] + Cc1cc(Nc2cc(N3CCN(C)CC3)nc(Sc3ccc(NC(=O)C4CC4)cc3)n2)n[nH]1 [Tozasertib] (partner 0.1 µM)", "procedure,_shortened": "as §1"}, "[3]": {"compound": "COc1cc2c(Oc3ccc4[nH]c(C)cc4c3F)ncnc2cc1OCCCN1CCCC1 [Cediranib] + CC(=O)c1c(C)c2cnc(Nc3ccc(N4CCNCC4)cn3)nc2n(C2CCCC2)c1=O [Palbociclib] (partner 0.5 µM)", "procedure,_shortened": "as §1"}, "[4]": {"compound": "COc1cc2c(Oc3ccc4[nH]c(C)cc4c3F)ncnc2cc1OCCCN1CCCC1 [Cediranib] + CC(C)C[C@H](NC(=O)[C@H](Cc1ccccc1)NC(=O)c1cnccn1)B(O)O [Bortezomib] (partner 0.002 µM)", "procedure,_shortened": "as §1"}}}
{"cell line": "UMC-11", "values": [{"measurement": "relative viability", "setting": "[1]; first compound 0.04 µM", "value": 0.612}, {"measurement": "relative viability", "setting": "[1]; first compound 0.1265 µM", "value": 0.573}, {"measurement": "relative viability", "setting": "[1]; first compound 0.4 µM", "value": 0.512}, {"measurement": "relative viability", "setting": "[1]; first compound 1.265 µM", "value": 0.656}, {"measurement": "relative viability", "setting": "[1]; first compound 4 µM", "value": 0.427}, {"measurement": "relative viability", "setting": "[2]; first compound 0.04 µM", "value": 0.202}, {"measurement": "relative viability", "setting": "[2]; first compound 0.1265 µM", "value": 0.186}, {"measurement": "relative viability", "setting": "[2]; first compound 0.4 µM", "value": 0.186}, {"measurement": "relative viability", "setting": "[2]; first compound 1.265 µM", "value": 0.192}, {"measurement": "relative viability", "setting": "[2]; first compound 4 µM", "value": 0.183}, {"measurement": "relative viability", "setting": "[3]; first compound 0.04 µM", "value": 0.345}, {"measurement": "relative viability", "setting": "[3]; first compound 0.1265 µM", "value": 0.341}, {"measurement": "relative viability", "setting": "[3]; first compound 0.4 µM", "value": 0.315}, {"measurement": "relative viability", "setting": "[3]; first compound 1.265 µM", "value": 0.328}, {"measurement": "relative viability", "setting": "[3]; first compound 4 µM", "value": 0.359}, {"measurement": "relative viability", "setting": "[4]; first compound 0.04 µM", "value": 1.02}, {"measurement": "relative viability", "setting": "[4]; first compound 0.1265 µM", "value": 0.442}, {"measurement": "relative viability", "setting": "[4]; first compound 0.4 µM", "value": 0.683}, {"measurement": "relative viability", "setting": "[4]; first compound 1.265 µM", "value": 0.628}, {"measurement": "relative viability", "setting": "[4]; first compound 4 µM", "value": 0.547}]}
